# In patent publication US11945822B2, “Pyrazolo-triazine and/or pyrazolo-pxrimidine derivatives as selective inhibitor of cyclin dependent kinase” (QURIENT CO., LTD., priority 2018, dated 2024):
# Like-named read-outs stand apart in the source and are kept apart here.
# Experiments:
# CDK5/p25 = biological target: T1, CDK5/p25 (Homo sapiens, UniProt Q00535); test: Enzymatic assay for CDK5 (FRET based LANCE Ultra kinase assay); format: biochemical; details: read-out: CDK5 enzymatic activity (IC50 range)
# T1 construct: purchased Invitrogen PR8543B
# T1 sequence (Q00535 whole entry): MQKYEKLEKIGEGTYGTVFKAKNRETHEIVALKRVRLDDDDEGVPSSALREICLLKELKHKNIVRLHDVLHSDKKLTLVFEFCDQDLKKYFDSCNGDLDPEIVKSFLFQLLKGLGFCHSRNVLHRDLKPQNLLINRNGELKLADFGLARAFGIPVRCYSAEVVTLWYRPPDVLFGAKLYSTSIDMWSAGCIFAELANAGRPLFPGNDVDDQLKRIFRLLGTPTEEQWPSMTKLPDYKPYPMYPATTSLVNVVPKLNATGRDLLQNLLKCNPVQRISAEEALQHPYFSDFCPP
# T1 sequence (Q15078 99-307 partner limits assumed): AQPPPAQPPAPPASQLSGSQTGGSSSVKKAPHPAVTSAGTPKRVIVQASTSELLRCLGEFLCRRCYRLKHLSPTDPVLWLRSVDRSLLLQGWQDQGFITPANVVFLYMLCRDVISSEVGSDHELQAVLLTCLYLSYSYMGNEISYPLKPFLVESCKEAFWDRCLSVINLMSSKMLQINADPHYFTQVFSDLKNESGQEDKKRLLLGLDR
# Outline: (§1)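 Each CDK complex ([…]) phosphorylated 68 nM ULight-MBP peptide with ATP at Km for 60 min at 23° C., against 8 compound doses (4-fold dilutions). EDTA/Eu-anti-phospho-MBP detection, 60 min, then TR-FRET emission at 615 and 665 nm.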
# HCT116 = test: Cellular HCT116 viability assay (CellTiter-Glo, 72 hours); format: cell-based; details: Homo sapiens, HCT-116
# Outline: (§2)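 Steps: seed cells at per-line density; add compound, DMSO vehicle kept under 0.1% final; incubate 72 h, 37 °C, 5% CO2; lyse with CellTiter-Glo and read luminescence; run in duplicate.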
# MV4-11 = test: Cellular MV4-11 viability assay (CellTiter-Glo, 72 hours); format: cell-based; details: Homo sapiens
# Outline: as §2
# CDK1/Cyclin B = biological target: T2, CDK1/Cyclin B (Homo sapiens, UniProt P06493); test: Enzymatic assay for CDK1 (FRET based LANCE Ultra kinase assay); format: biochemical; details: read-out: CDK1 enzymatic activity (IC50 range)
# T2 construct: purchased Invitrogen PR4768C
# T2 sequence (P06493 whole entry): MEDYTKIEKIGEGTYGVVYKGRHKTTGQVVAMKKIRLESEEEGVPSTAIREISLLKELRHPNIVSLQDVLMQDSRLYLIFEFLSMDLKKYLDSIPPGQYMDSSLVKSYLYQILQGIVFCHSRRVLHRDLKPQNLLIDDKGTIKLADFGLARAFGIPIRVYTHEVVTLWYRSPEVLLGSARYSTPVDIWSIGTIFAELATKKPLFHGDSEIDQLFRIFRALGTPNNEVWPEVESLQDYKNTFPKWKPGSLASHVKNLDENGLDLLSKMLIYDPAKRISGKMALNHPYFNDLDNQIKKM
# T2 sequence (P14635 whole entry partner): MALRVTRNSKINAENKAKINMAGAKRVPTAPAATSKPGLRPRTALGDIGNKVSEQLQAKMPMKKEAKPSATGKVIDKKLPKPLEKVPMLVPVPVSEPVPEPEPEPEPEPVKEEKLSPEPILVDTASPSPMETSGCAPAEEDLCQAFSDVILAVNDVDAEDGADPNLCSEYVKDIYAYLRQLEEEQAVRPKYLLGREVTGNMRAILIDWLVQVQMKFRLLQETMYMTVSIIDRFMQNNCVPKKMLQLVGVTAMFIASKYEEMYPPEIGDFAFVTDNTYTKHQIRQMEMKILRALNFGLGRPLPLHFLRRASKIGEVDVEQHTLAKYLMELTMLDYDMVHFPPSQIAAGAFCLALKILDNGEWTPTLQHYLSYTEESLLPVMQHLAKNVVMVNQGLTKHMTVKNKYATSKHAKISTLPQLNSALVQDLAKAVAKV
# Outline: as §1
# CDK7/Cyclin H/MNAT1 = biological target: T3, CDK7/Cyclin H/MNAT1 (Homo sapiens, UniProt P50613); test: Enzymatic assay for CDK7 (FRET based LANCE Ultra kinase assay); format: biochemical
# T3 construct: purchased Invitrogen PR6749B
# T3 sequence (P50613 whole entry): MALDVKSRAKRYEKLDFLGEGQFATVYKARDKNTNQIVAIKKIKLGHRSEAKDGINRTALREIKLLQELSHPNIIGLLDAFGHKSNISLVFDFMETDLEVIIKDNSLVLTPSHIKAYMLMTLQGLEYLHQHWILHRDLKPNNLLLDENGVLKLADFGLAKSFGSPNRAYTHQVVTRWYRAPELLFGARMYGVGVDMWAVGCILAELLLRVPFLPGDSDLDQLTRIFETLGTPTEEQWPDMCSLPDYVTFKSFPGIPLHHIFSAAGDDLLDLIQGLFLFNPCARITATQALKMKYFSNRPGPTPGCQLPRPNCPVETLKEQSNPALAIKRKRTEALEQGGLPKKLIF
# T3 sequence (P51946 whole entry partner): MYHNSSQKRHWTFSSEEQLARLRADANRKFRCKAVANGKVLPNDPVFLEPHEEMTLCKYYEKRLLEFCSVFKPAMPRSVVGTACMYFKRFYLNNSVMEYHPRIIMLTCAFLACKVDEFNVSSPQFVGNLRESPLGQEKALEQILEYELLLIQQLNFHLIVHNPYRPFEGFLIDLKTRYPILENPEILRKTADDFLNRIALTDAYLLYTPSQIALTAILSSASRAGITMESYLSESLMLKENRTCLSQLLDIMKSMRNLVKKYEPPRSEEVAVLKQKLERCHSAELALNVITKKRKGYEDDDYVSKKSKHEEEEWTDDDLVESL
# T3 sequence (P51948 whole entry partner): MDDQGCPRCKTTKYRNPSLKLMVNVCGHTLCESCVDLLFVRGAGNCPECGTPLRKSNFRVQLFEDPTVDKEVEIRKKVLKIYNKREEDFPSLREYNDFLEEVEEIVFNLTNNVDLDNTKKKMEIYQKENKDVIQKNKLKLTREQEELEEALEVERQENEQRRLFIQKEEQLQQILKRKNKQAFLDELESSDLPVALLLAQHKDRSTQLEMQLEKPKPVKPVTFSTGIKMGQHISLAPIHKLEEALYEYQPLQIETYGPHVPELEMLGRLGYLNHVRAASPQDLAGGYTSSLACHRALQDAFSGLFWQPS
# Outline: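 LANCE Ultra TR-FRET kinase assay using a ULight-labeled peptide substrate and a Eu-labeled anti-phospho antibody, with ATP at its Km. Purified CDK/cyclin complex was added to compound after brief centrifugation.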
# H460 = test: Cellular H460 viability assay (CellTiter-Glo, 72 hours); format: cell-based; details: Homo sapiens, NCI-H460
# Outline: as §2
# RPMI-8226 = test: Cellular RPMI-8226 viability assay (CellTiter-Glo, 72 hours); format: cell-based; details: Homo sapiens
# Outline: as §2
# CDK2/Cyclin A = biological target: T4, CDK2/Cyclin A (Homo sapiens, UniProt P24941); test: Enzymatic assay for CDK2 (FRET based LANCE Ultra kinase assay); format: biochemical; details: read-out: CDK2 enzymatic activity (IC50 range)
# T4 construct: purchased Invitrogen PV6290
# Outline: as §1
# MOLT-4 = test: Cellular MOLT-4 viability assay (CellTiter-Glo, 72 hours); format: cell-based; details: Homo sapiens, MOLT4 viability assay
# Outline: as §2
# [1] = read-out: CDK7 enzymatic activity (IC50 range)
SMILES,IC50 (CDK5/p25),IC50 (HCT116),IC50 (MV4-11),IC50 (CDK1/Cyclin B),CDK1/CDK7: Selectivity of CDK7 inhibition over CDK1 inhibition (CDK7/Cyclin H/MNAT1),CDK2/CDK7: Selectivity of CDK7 inhibition over CDK2 inhibition (CDK7/Cyclin H/MNAT1),CDK5/CDK7: Selectivity of CDK7 inhibition over CDK5 inhibition (CDK7/Cyclin H/MNAT1),IC50 (CDK7/Cyclin H/MNAT1; [1]),IC50 (H460),IC50 (RPMI-8226),IC50 (CDK2/Cyclin A),IC50 (MOLT-4),IC50 (CDK7/Cyclin H/MNAT1)
CC(C)c1cnn2c(NCc3ccccc3-c3nc4ccccc4o3)nc(N3CCC(N)CC3)nc12 [Compound 97],100 to 1000 nM,< 1000 nM,< 1000 nM,100 to 1000 nM,"B (B=less than 200 fold, but greater than 20 fold)","B (B=less than 200 fold, but greater than 20 fold)","B (B=less than 200 fold, but greater than 20 fold)",< 100 nM,< 1000 nM,< 1000 nM,100 to 1000 nM,1000 to 10000 nM,
CC(=O)Nc1ccc2[nH]c(-c3ccccc3CNc3nc(N4CCC(N)CC4)nc4c(C(C)C)cnn34)cc2c1 [Compound 116],< 100 nM,< 1000 nM,< 1000 nM,100 to 1000 nM,"B (B=less than 200 fold, but greater than 20 fold)","B (B=less than 200 fold, but greater than 20 fold)",C (C=less than 20 fold),< 100 nM,< 1000 nM,< 1000 nM,< 100 nM,< 1000 nM,
CC(C)c1cnn2c(NCc3ccccc3-c3cc4ccccc4cn3)nc(N3CCC(N)CC3)nc12 [Compound 78],< 100 nM,,< 1000 nM,100 to 1000 nM,A (A=greater than 200 fold),"B (B=less than 200 fold, but greater than 20 fold)","B (B=less than 200 fold, but greater than 20 fold)",< 100 nM,< 1000 nM,< 1000 nM,100 to 1000 nM,1000 to 10000 nM,
CC(C)c1cnn2c(NCc3ccccc3-n3ccc(-c4ccccc4)n3)nc(N3CCC(N)CC3)nc12 [Compound 99],100 to 1000 nM,< 1000 nM,< 1000 nM,> 1000 nM,A (A=greater than 200 fold),A (A=greater than 200 fold),"B (B=less than 200 fold, but greater than 20 fold)",,< 1000 nM,1000 to 10000 nM,> 1000 nM,1000 to 10000 nM,< 100 nM
CC(C)c1cnn2c(NCc3ccccc3-c3cc4c(F)cccc4[nH]3)nc(N3CCC(N)CC3)nc12 [Compound 112],< 100 nM,< 1000 nM,< 1000 nM,100 to 1000 nM,"B (B=less than 200 fold, but greater than 20 fold)","B (B=less than 200 fold, but greater than 20 fold)",C (C=less than 20 fold),< 100 nM,< 1000 nM,< 1000 nM,100 to 1000 nM,< 1000 nM,
CC(C)c1cnn2c(NCc3ccccc3-c3nc4ccccc4[nH]3)nc(N3CCC(N)CC3)nc12 [Compound 98],< 100 nM,< 1000 nM,< 1000 nM,100 to 1000 nM,A (A=greater than 200 fold),"B (B=less than 200 fold, but greater than 20 fold)","B (B=less than 200 fold, but greater than 20 fold)",< 100 nM,< 1000 nM,< 1000 nM,100 to 1000 nM,< 1000 nM,
CC(C)Oc1ccc2cn(-c3ccccc3CNc3nc(N4CCC(N)CC4)nc4c(C(C)C)cnn34)nc2c1 [Compound 107],100 to 1000 nM,,< 1000 nM,> 1000 nM,A (A=greater than 200 fold),A (A=greater than 200 fold),"B (B=less than 200 fold, but greater than 20 fold)",< 100 nM,< 1000 nM,< 1000 nM,100 to 1000 nM,1000 to 10000 nM,
CCCc1ccc2nn(-c3ccccc3CNc3nc(N4CCC(N)CC4)nc4c(C(C)C)cnn34)cc2c1 [Compound 106],100 to 1000 nM,,< 1000 nM,> 1000 nM,A (A=greater than 200 fold),"B (B=less than 200 fold, but greater than 20 fold)","B (B=less than 200 fold, but greater than 20 fold)",< 100 nM,< 1000 nM,< 1000 nM,100 to 1000 nM,1000 to 10000 nM,
CC(C)c1cnn2c(NCc3ccccc3-n3cc4cc(Cl)ccc4n3)nc(N3CCC(N)CC3)nc12 [Compound 103],100 to 1000 nM,,< 1000 nM,> 1000 nM,A (A=greater than 200 fold),"B (B=less than 200 fold, but greater than 20 fold)","B (B=less than 200 fold, but greater than 20 fold)",< 100 nM,< 1000 nM,< 1000 nM,100 to 1000 nM,1000 to 10000 nM,
CC(C)c1cnn2c(NCc3ccccc3-c3cn4ccccc4n3)nc(N3CCC(N)CC3)nc12 [Compound 110],< 100 nM,,< 1000 nM,100 to 1000 nM,"B (B=less than 200 fold, but greater than 20 fold)","B (B=less than 200 fold, but greater than 20 fold)",C (C=less than 20 fold),< 100 nM,< 1000 nM,< 1000 nM,< 100 nM,< 1000 nM,
CC(C)c1cnn2c(NCc3ccccc3-c3ncc4ccccc4n3)nc(N3CCC(N)CC3)nc12 [Compound 77],100 to 1000 nM,,< 1000 nM,100 to 1000 nM,A (A=greater than 200 fold),"B (B=less than 200 fold, but greater than 20 fold)","B (B=less than 200 fold, but greater than 20 fold)",< 100 nM,< 1000 nM,< 1000 nM,100 to 1000 nM,1000 to 10000 nM,
CC(C)c1cnn2c(NCc3ccccc3-n3cccn3)nc(-c3ccc(Cl)c(C4CCNCC4)c3)nc12 [Compound 170],100 to 1000 nM,,< 1000 nM,> 1000 nM,A (A=greater than 200 fold),"B (B=less than 200 fold, but greater than 20 fold)","B (B=less than 200 fold, but greater than 20 fold)",< 100 nM,< 1000 nM,1000 to 10000 nM,> 1000 nM,1000 to 10000 nM,
